# Test results from paper PMC5766618, “Paper-based inkjet bioprinting to detect fluorescence resonance energy transfer for the assessment of anti-inflammatory activity” (Scientific Reports, 2018).
# Target: cAMP-specific 3′,5′-cyclic phosphodiesterase 4B (PDE4B) (Homo sapiens, UniProt Q07343)
# Sequence (Q07343 whole entry): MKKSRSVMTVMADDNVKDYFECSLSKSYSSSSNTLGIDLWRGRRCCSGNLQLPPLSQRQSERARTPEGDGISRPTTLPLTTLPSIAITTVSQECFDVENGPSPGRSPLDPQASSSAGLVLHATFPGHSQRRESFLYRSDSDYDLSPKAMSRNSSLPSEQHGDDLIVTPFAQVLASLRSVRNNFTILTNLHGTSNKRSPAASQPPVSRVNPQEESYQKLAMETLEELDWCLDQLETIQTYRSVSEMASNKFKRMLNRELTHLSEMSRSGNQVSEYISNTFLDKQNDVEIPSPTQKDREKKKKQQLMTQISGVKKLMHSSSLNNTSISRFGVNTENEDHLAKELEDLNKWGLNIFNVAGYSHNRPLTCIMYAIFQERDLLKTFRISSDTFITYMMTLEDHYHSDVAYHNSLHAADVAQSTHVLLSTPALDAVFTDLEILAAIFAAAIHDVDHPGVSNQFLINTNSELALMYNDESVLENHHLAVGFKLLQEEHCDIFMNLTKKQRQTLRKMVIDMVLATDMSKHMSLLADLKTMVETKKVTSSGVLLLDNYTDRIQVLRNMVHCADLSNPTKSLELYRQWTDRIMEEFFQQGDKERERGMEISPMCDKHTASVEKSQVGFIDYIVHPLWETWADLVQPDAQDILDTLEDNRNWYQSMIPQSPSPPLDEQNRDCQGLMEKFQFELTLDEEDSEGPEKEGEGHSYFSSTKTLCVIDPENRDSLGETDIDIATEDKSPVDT
compound,measurement,value
COc1ccc(C2CNC(=O)C2)cc1OC1CCCC1 (stereo not shown) [roliparm],inkjet-printed paper-based competitive FRET cAMP assay of PDE4B inhibition (IM50),2.46e-13 mol
